Data published in US20090082337A1, “Compositions Comprising Quinolone and Methods for Treating or Controlling Infections” (priority 2007, published 2009).
Converted amounts (≈) assume the structure as drawn.

Legend:
[1] = tested on: Propionibacterium acnes (ATCC 6919); assay: In vitro anti-bacterial activity (MIC90), anaerobic bacteria; type: cell-based; settings: Cutibacterium acnes, ATCC6919, anaerobic reference bacteria
[2] = tested on: Staphylococcus epidermidis (ATCC 12228); assay: In vitro anti-bacterial activity (MIC90), Gram-positive bacteria; type: cell-based; settings: ATCC12228, Gram-positive reference strain
Description: (§1) In yet another aspect, said another quinolone has a MIC90 value for a Gram-negative bacterium that is lower than that of the fluoroquinolone having Formula I, II, III, IV, V, VI, VII, or VIII for the same bacterium, said fluoroquinolone being included in the composition. MIC90 is the minimum concentration of the active compound required to inhibit ninety percent of the growth of a specified pathogen, in μg/ml. Anti-bacterial activity of the compound having Formula […] was tested against several Gram-positive reference bacteria strains and compared to the anti-bacterial activity of three commercially available antibiotics (nadifloxacin, ofloxacin, and sparfloxacin).

[3] = tested on: Staphylococcus aureus (Smith); assay: as above; type: cell-based; settings: Gram-positive reference strain
Description: as §1

[4] = tested on: Staphylococcus aureus (ATCC 25933); assay: as above; type: cell-based; settings: ATCC25933, Gram-positive reference strain
Description: as §1

[5] = tested on: Streptococcus faecalis (ATCC 29212); assay: as above; type: cell-based; settings: Enterococcus faecalis, ATCC29212, Gram-positive reference strain
Description: as §1

[6] = tested on: Streptococcus pneniae (IID 554); assay: as above; type: cell-based; settings: IID554, Gram-positive reference strain
Description: as §1

[7] = tested on: Streptococcus pyogenes (IID 698); assay: as above; type: cell-based; settings: IID698, Gram-positive reference strain
Description: as §1

[8] = tested on: Streptococcus pneumoniae (IID 553); assay: as above; type: cell-based; settings: IID553, Gram-positive reference strain
Description: as §1

[9] = tested on: Streptococcus faecalis (IFO 12964); assay: as above; type: cell-based; settings: Enterococcus faecalis, IFO12964, Gram-positive reference strain
Description: as §1

[10] = tested on: Bacillis subtilis (ATCC 6633); assay: as above; type: cell-based; settings: Gram-positive reference strain
Description: as §1

[11] = tested on: Staphylococcus aureus (FDA 209P); assay: as above; type: cell-based; settings: FDA209P, Gram-positive reference strain
Description: as §1

[12] = tested on: Sarcina lutea (ATCC 9341); assay: as above; type: cell-based; settings: Micrococcus luteus, ATCC9341, Gram-positive reference strain
Description: as §1

[13] = tested on: Coagulase-negative Staphylococcus; assay: In vitro anti-bacterial activity (MIC90), ophthalmologic clinical bacteria isolates; type: cell-based; settings: Gram-positive
[14] = tested on: Gentamycin-resistant Pseudomonas aeruginosa; assay: as above; type: cell-based; settings: antibiotic-resistant organisms
Streptococcus pneumoniae = assay: as above; type: cell-based; settings: Gram-positive
Moraxella species = assay: as above; type: cell-based; settings: Gram-negative
[15] = tested on: Gentamycin-resistant Staphylococcus aureus; assay: as above; type: cell-based; settings: antibiotic-resistant organisms
Propionibacterium acnes = assay: as above; type: cell-based; settings: Cutibacterium acnes, Gram-positive
Haemophilus influenzae = assay: as above; type: cell-based; settings: Gram-negative
Staphylococcus aureus = assay: as above; type: cell-based; settings: Gram-positive
Corynebacterium species = assay: as above; type: cell-based; settings: Gram-positive
Description: As disclosed above, most of these bacteria strains are also relevant to infections of the ear and upper respiratory tract.

[16] = tested on: Penicillin-resistant Streptococcus pneumoniae; assay: as above; type: cell-based; settings: antibiotic-resistant organisms
Pseudomonas aeruginosa = assay: as above; type: cell-based; settings: Gram-negative
[17] = tested on: Ofloxacin-resistant Staphylococcus aureus; assay: as above; type: cell-based; settings: antibiotic-resistant organisms
[18] = Stability of the compound having Formula IV in solution; type: physicochemical; settings: for remaining amount of the compound in solution: initial concentration 100 μg/ml
Description: The stability of the compound having Formula IV in solution is shown in Table 7, as the remaining amount (expressed as the percentage of the initial amount) of the compound after selected times. The compound is stable in the pH range of most interest for the present invention.

S. aureus (ATCC 29213) = assay: MICs of compound having Formula IV and ciprofloxacin alone and in combination; type: cell-based; settings: Staphylococcus aureus, ATCC29213, alone, read-out: MIC, drug alone
Description: (§2) Compositions having various combinations of concentrations of compound having Formula IV and cirprofloxacin were tested systematically against S. aureus, P. aeruginosa, and E. coli.

E. coli (ATCC 25922) = assay: as above; type: cell-based; settings: Escherichia coli, ATCC25922, alone, read-out: MIC, drug alone
Description: as §2

[19] = tested on: P. aeruginosa (ATCC 27853); assay: as above; type: cell-based; settings: Pseudomonas aeruginosa, ATCC27853, alone, read-out: MIC, drug alone
Description: as §2

## C[C@@H]1CN(c2c(F)c(N)c3c(=O)c(C(=O)O)cn(C4CC4)c3c2F)C[C@H](C)N1 [Sparfloxacin, sparfloxacin]
[1]
  MIC90: 0.39 µg/mL (≈ 0.994 µM)
[2]
  MIC90: 0.2 µg/mL (≈ 0.51 µM)
[3]
  MIC90: 0.05 µg/mL (≈ 0.127 µM)
[4]
  MIC90: 0.1 µg/mL (≈ 0.255 µM)
[5]
  MIC90: 0.39 µg/mL (≈ 0.994 µM)
[6]
  MIC90: 0.39 µg/mL (≈ 0.994 µM)
[7]
  MIC90: 0.2 µg/mL (≈ 0.51 µM)
[8]
  MIC90: 0.39 µg/mL (≈ 0.994 µM)
[9]
  MIC90: 0.78 µg/mL (≈ 1.99 µM)
[10]
  MIC90: 0.024 µg/mL (≈ 0.0612 µM)
[11]
  MIC90: 0.024 µg/mL (≈ 0.0612 µM)
[12]
  MIC90: 1.56 µg/mL (≈ 3.98 µM)

## CC1COc2c(N3CCN(C)CC3)c(F)cc3c(=O)c(C(=O)O)cn1c23 (stereo not shown) [Ofloxacin, ofloxacin]
[1]
  MIC90: 0.78 µg/mL (≈ 2.16 µM)
[13]
  MIC90: 8 µg/mL (≈ 22.1 µM)
[14]
  MIC90: 64 µg/mL (≈ 177 µM)
Streptococcus pneumoniae
  MIC90: 2 µg/mL (≈ 5.53 µM)
Moraxella species
  MIC90: 0.13 µg/mL (≈ 0.36 µM)
[15]
  MIC90: 128 µg/mL (≈ 354 µM)
Propionibacterium acnes
  MIC90: 1 µg/mL (≈ 2.77 µM)
[2]
  MIC90: 0.78 µg/mL (≈ 2.16 µM)
[3]
  MIC90: 0.2 µg/mL (≈ 0.553 µM)
[4]
  MIC90: 0.39 µg/mL (≈ 1.08 µM)
[5]
  MIC90: 1.56 µg/mL (≈ 4.32 µM)
[6]
  MIC90: 1.56 µg/mL (≈ 4.32 µM)
[7]
  MIC90: 0.39 µg/mL (≈ 1.08 µM)
[8]
  MIC90: 1.56 µg/mL (≈ 4.32 µM)
[9]
  MIC90: 1.56 µg/mL (≈ 4.32 µM)
[10]
  MIC90: 0.05 µg/mL (≈ 0.138 µM)
[11]
  MIC90: 0.2 µg/mL (≈ 0.553 µM)
[12]
  MIC90: 3.13 µg/mL (≈ 8.66 µM)
Haemophilus influenzae
  MIC90: ≤ 0.06 µg/mL
Staphylococcus aureus
  MIC90: 32 µg/mL (≈ 88.6 µM)
Corynebacterium species
  MIC90: 32 µg/mL (≈ 88.6 µM)
[16]
  MIC90: 2 µg/mL (≈ 5.53 µM)
Pseudomonas aeruginosa
  MIC90: 4 µg/mL (≈ 11.1 µM)
[17]
  MIC90: > 128 µg/mL

## CC1CCc2c(N3CCC(O)CC3)c(F)cc3c(=O)c(C(=O)O)cn1c23 (stereo not shown) [Nadifloxacin, nadifloxacin]
[1]
  MIC90: 0.2 µg/mL (≈ 0.555 µM)
[2]
  MIC90: 0.1 µg/mL (≈ 0.277 µM)
[3]
  MIC90: 0.024 µg/mL (≈ 0.0666 µM)
[4]
  MIC90: 0.05 µg/mL (≈ 0.139 µM)
[5]
  MIC90: 0.78 µg/mL (≈ 2.16 µM)
[6]
  MIC90: 0.78 µg/mL (≈ 2.16 µM)
[7]
  MIC90: 0.1 µg/mL (≈ 0.277 µM)
[8]
  MIC90: 0.78 µg/mL (≈ 2.16 µM)
[9]
  MIC90: 0.78 µg/mL (≈ 2.16 µM)
[10]
  MIC90: 0.006 µg/mL (≈ 0.0166 µM)
[11]
  MIC90: 0.024 µg/mL (≈ 0.0666 µM)
[12]
  MIC90: 0.39 µg/mL (≈ 1.08 µM)

## N[C@@H]1CCCCN(c2c(F)cc3c(=O)c(C(=O)O)cn(C4CC4)c3c2Cl)C1 [Compound Having Formula IV]
[1]
  MIC90: 0.2 µg/mL
[13]
  MIC90: 0.5 µg/mL
[14]
  MIC90: 32 µg/mL
Streptococcus pneumoniae
  MIC90: 0.13 µg/mL
Moraxella species
  MIC90: 0.13 µg/mL
[15]
  MIC90: 4 µg/mL
Propionibacterium acnes
  MIC90: 0.25 µg/mL
[18]; pH 3.5, 0 week
  remaining amount of the compound in solution: 100 percentage of the initial amount
[18]; pH 3.5, 2 weeks
  remaining amount of the compound in solution: 99.0 percentage of the initial amount
[18]; pH 3.5, 4 weeks
  remaining amount of the compound in solution: 98.8 percentage of the initial amount
[18]; pH 4.0, 0 week
  remaining amount of the compound in solution: 100 percentage of the initial amount
[18]; pH 4.0, 2 weeks
  remaining amount of the compound in solution: 98.5 percentage of the initial amount
[18]; pH 4.0, 4 weeks
  remaining amount of the compound in solution: 98.4 percentage of the initial amount
[18]; pH 4.5, 0 week
  remaining amount of the compound in solution: 100 percentage of the initial amount
[18]; pH 4.5, 2 weeks
  remaining amount of the compound in solution: 98.4 percentage of the initial amount
[18]; pH 4.5, 4 weeks
  remaining amount of the compound in solution: 98.4 percentage of the initial amount
[18]; pH 5.0, 0 week
  remaining amount of the compound in solution: 100 percentage of the initial amount
[18]; pH 5.0, 2 weeks
  remaining amount of the compound in solution: 98.2 percentage of the initial amount
[18]; pH 5.0, 4 weeks
  remaining amount of the compound in solution: 98.8 percentage of the initial amount
[18]; pH 5.5, 0 week
  remaining amount of the compound in solution: 100 percentage of the initial amount
[18]; pH 5.5, 2 weeks
  remaining amount of the compound in solution: 96.8 percentage of the initial amount
[18]; pH 5.5, 4 weeks
  remaining amount of the compound in solution: 96.8 percentage of the initial amount
[18]; pH 6.0, 0 week
  remaining amount of the compound in solution: 100 percentage of the initial amount
[18]; pH 6.0, 2 weeks
  remaining amount of the compound in solution: 96.3 percentage of the initial amount
[18]; pH 6.0, 4 weeks
  remaining amount of the compound in solution: 98.0 percentage of the initial amount
[18]; pH 6.5, 0 week
  remaining amount of the compound in solution: 100 percentage of the initial amount
[18]; pH 6.5, 2 weeks
  remaining amount of the compound in solution: 95.3 percentage of the initial amount
[18]; pH 6.5, 4 weeks
  remaining amount of the compound in solution: 95.6 percentage of the initial amount
[18]; pH range of most interest for the present invention
  stability in solution (in words): stable
[2]
  MIC90: 0.05 µg/mL
[3]
  MIC90: 0.006 µg/mL
[4]
  MIC90: 0.05 µg/mL
[5]
  MIC90: 0.2 µg/mL
[6]
  MIC90: 0.2 µg/mL
[7]
  MIC90: 0.1 µg/mL
[8]
  MIC90: 0.1 µg/mL
[9]
  MIC90: 0.1 µg/mL
[10]
  MIC90: 0.012 µg/mL
[11]
  MIC90: 0.012 µg/mL
[12]
  MIC90: 0.1 µg/mL
Haemophilus influenzae
  MIC90: ≤ 0.06 µg/mL
S. aureus (ATCC 29213)
  MIC: 0.03 µg/mL
E. coli (ATCC 25922)
  MIC: 0.12 µg/mL
[19]
  MIC: 4 µg/mL
Staphylococcus aureus
  MIC90: 1 µg/mL
Corynebacterium species
  MIC90: 2 µg/mL
[16]
  MIC90: 0.13 µg/mL
Pseudomonas aeruginosa
  MIC90: 4 µg/mL
[17]
  MIC90: 8 µg/mL
